pIC50: −log10 of the molar value.
Target: T1, chicken gizzard smooth muscle myosin subfragment-1 chemically crosslinked to cardiac or skeletal actin (Gallus gallus, UniProt P10587)
T1 construct: chicken gizzard smooth muscle myosin subfragment-1; from tissue; host or cells: chicken gizzard
Assay: Smooth muscle myosin ATPase dose response assay (pyruvate kinase/horseradish peroxidase/pyruvate oxidase-coupled, amplex red fluorescence)
Assay type: biochemical
Details: read-out: IC50 Arithmetic Mean
How it was run: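 Chicken gizzard myosin S1 crosslinked to cardiac or skeletal actin, titrated to a set hydrolysis rate; 0.15 mM ATP, 12 mM PIPES pH 7.00, 100 mM KCl, 2 mM MgCl2. Pyruvate kinase/pyruvate oxidase/HRP coupling with amplex red fluorescence; IC50 from 4-parameter fit.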

T1 sequence (P02607 2-151): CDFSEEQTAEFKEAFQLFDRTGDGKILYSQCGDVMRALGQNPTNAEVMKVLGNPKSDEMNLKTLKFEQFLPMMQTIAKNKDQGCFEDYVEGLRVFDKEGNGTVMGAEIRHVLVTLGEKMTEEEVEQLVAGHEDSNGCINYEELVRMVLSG
T1 sequence (P10587 84-789): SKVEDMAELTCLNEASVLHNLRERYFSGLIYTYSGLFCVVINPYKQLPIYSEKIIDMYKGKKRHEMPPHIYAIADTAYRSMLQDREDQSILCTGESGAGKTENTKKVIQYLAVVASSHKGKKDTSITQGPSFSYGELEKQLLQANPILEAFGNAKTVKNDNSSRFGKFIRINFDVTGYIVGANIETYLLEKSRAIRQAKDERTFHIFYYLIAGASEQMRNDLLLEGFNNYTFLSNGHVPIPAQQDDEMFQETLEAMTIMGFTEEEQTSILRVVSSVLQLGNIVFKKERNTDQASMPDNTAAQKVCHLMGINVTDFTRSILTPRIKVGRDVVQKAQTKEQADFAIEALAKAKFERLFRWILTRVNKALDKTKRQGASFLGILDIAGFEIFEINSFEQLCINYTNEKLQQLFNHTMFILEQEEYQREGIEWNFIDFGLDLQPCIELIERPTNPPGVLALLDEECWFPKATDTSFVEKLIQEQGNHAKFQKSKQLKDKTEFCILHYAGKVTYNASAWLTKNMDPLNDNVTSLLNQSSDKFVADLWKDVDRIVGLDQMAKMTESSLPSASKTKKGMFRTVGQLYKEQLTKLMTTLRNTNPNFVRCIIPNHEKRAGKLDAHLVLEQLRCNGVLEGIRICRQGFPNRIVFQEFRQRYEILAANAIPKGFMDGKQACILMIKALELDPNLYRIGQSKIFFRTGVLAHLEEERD

Compound | pIC50
C=CCNC(=O)c1ccc(-c2ccccc2)nc1NCCc1ccccc1 [{6-phenyl-2-[(2-phenylethyl)amino](3-pyridyl)}-N-prop-2-enylcarboxamide] | 5.97
N#Cc1ccccc1-c1ccc(C(=O)NCc2cnccc2CN)c(NCCc2cccc(F)c2)n1 [N-{[4-(aminomethyl)(3-pyridyl)]methyl}(6-(2-cyanophenyl)-2-{[2-(3-fluorophenyl)ethyl]amino}(3-pyridyl))carboxamide] | 6.40
Cc1cc(C)cc(-c2ccc(C(=O)NCc3cccnc3)c(NCCc3ccccn3)n2)c1 [{6-(3,5-dimethylphenyl)-2-[(2-(2-pyridyl)ethyl)amino](3-pyridyl)}-N-(3-pyridylmethyl)carboxamide] | 4.99
N#Cc1ccccc1-c1ccc(C(=O)NC[C@H]2CCCCN2C(=O)OCCCl)c(NCCc2cccc(F)c2)n1 [2-chloroethyl (2R)-2-{[(6-(2-cyanophenyl)-2-{[2-(3-fluorophenyl)ethyl]amino}(3-pyridyl))carbonylamino]methyl}piperidinecarboxylate] | 5.57
Cc1ccc(-c2ccc(C(=O)NCc3cccnc3)c(NCCc3cccc(F)c3)n2)c(Cl)c1 [(6-(2-chloro-4-methylphenyl)-2-{[2-(3-fluorophenyl)ethyl]amino}(3-pyridyl))-N-(3-pyridylmethyl)carboxamide] | 5.68
N#Cc1ccccc1-c1ccc(C(=O)NCC(=O)NCCC(=O)O)c(NCCc2cccc(F)c2)n1 [3-{2-[(6-(2-cyanophenyl)-2-{[2-(3-fluorophenyl)ethyl]amino}-3-pyridyl)carbonylamino]acetylamino}propanoic acid] | 5.01
O=C(NCc1cccnc1)c1ccc(-c2ccc(Cl)c(Cl)c2)nc1NCCc1ccccn1 [{6-(3,4-dichlorophenyl)-2-[(2-(2-pyridyl)ethyl)amino](3-pyridyl)}-N-(3-pyridylmethyl)carboxamide] | 5.47
Cn1cc(-c2ccc(C(=O)NC[C@H]3CCCN3C(=O)CN)c(NCCc3cccc(F)c3)n2)cn1 [N-{[(2R)-1-(2-aminoacetyl)pyrrolidin-2-yl]methyl}(2-{[2-(3-fluorophenyl)ethyl]amino}-6-(1-methylpyrazol-4-yl)(3-pyridyl))carboxamide] | 6.24
CC(C)(C)OC(=O)NCCCC(=O)N1CCC[C@H](CNC(=O)c2ccc(-c3ccccc3C#N)nc2NCCc2cccc(F)c2)C1 [N-[((3R)-1-{4-[(tert-butoxy)carbonylamino]butanoyl}(3-piperidyl))methyl](6-(2-cyanophenyl)-2-{[2-(3-fluorophenyl)ethyl]amino}(3-pyridyl))carboxamide] | 5.21
N#Cc1ccc(-c2ccc(C(=O)NCc3cccnc3)c(NCCc3ccccn3)n2)cc1 [{6-(4-cyanophenyl)-2-[(2-(2-pyridyl)ethyl)amino](3-pyridyl)}-N-(3-pyridylmethyl)carboxamide] | 5.71
C[C@H](CNC(=O)c1cc(F)c(-c2cnn(C)c2)nc1NCCc1cccc(F)c1)C(C)(C)O [N-((2R)-3-hydroxy-2,3-dimethylbutyl)(5-fluoro-2-{[2-(3-fluorophenyl)ethyl]amino}-6-(1-methylpyrazol-4-yl)(3-pyridyl))carboxamide] | 5.91
O=C(NCc1cccnc1)c1ccc(-c2cccs2)nc1NCCc1ccccn1 [{2-[(2-(2-pyridyl)ethyl)amino]-6-(2-thienyl)(3-pyridyl)}-N-(3-pyridylmethyl)carboxamide] | 6.10
CC(C)NC(=O)c1ccc(-c2ccccc2)nc1NCCc1ccccn1 [N-(methylethyl){6-phenyl-2-[(2-(2-pyridyl)ethyl)amino](3-pyridyl)}carboxamide] | 4.88
Cn1cc(-c2ccc(C(=O)NCc3cccnc3)c(NCCc3ccccn3)n2)cn1 [{6-(1-methylpyrazol-4-yl)-2-[(2-(2-pyridyl)ethyl)amino](3-pyridyl)}-N-(3-pyridylmethyl)carboxamide] | 5.60
CC(=O)Nc1ccc(-c2ccc(C(=O)NCc3cccnc3)c(NCCc3ccccn3)n2)cc1 [N-(4-{6-[(2-(2-pyridyl)ethyl)amino]-5-[N-(3-pyridylmethyl)carbamoyl]-2-pyridyl}phenyl)acetamide] | 5.91
CN1CCN(CCCNC(=O)c2ccc(-c3ccccc3C#N)nc2NCCc2cccc(F)c2)CC1 [(6-(2-cyanophenyl)-2-{[2-(3-fluorophenyl)ethyl]amino}(3-pyridyl))-N-[3-(4-methylpiperazinyl)propyl]carboxamide] | 5.51
Cn1cc(-c2ccc(C(=O)NC[C@H]3CCCN3C(=O)CO)c(NCCc3cccc(F)c3)n2)cn1 [N-{[(2R)-1-(2-hydroxyacetyl)pyrrolidin-2-yl]methyl}(2-{[2-(3-fluorophenyl)ethyl]amino}-6-(1-methylpyrazol-4-yl)(3-pyridyl))carboxamide] | 5.75
N#Cc1ccccc1-c1ccc(C(=O)NC(CCN)C(N)=O)c(NCCc2cccc(F)c2)n1 (stereo not drawn) [N-(3-amino-1-carbamoylpropyl)(6-(2-cyanophenyl)-2-{[2-(3-fluorophenyl)ethyl]amino}(3-pyridyl))carboxamide] | 5.72
CC(C)(C)OC(=O)NCCCN1C(=O)CCC[C@@H]1CNC(=O)c1ccc(-c2ccccc2C#N)nc1NCCc1cccc(F)c1 [N-[((2R)-1-{3-[(tert-butoxy)carbonylamino]propyl}-6-oxo(2-piperidyl))methyl](6-(2-cyanophenyl)-2-{[2-(3-fluorophenyl)ethyl]amino}(3-pyridyl))carboxamide] | 6.41
O=C(NCc1cccnc1)c1ccc(-c2ccccc2)nc1NCCC1CCCCC1 [{2-[(2-cyclohexylethyl)amino]-6-phenyl(3-pyridyl)}-N-(3-pyridylmethyl)carboxamide] | 5.73
Cc1cc(C(=O)NCc2cccnc2CNC(=O)OC(C)(C)C)c(NCCc2cccc(F)c2)nc1-c1ccccc1C#N [N-[(2-{[(tert-butoxy)carbonylamino]methyl}(3-pyridyl))methyl](6-(2-cyanophenyl)-2-{[2-(3-fluorophenyl)ethyl]amino}-5-methyl(3-pyridyl))carboxamide] | 5.37
CC(C)(C)OC(=O)NCCCN1CCC(CNC(=O)c2ccc(-c3cn[nH]c3)nc2NCCc2cccc(F)c2)C1=O (stereo not drawn) [N-[(1-{3-[(tert-butoxy)carbonylamino]propyl}-2-oxopyrrolidin-3-yl)methyl](2-{[2-(3-fluorophenyl)ethyl]amino}-6-pyrazol-4-yl(3-pyridyl))carboxamide] | 6.23
CC(=O)NCCCNC(=O)c1cc(F)c(-c2cnn(C)c2)nc1NCCc1cccc(F)c1 [N-{3-[(5-fluoro-2-{[2-(3-fluorophenyl)ethyl]amino}-6-(1-methylpyrazol-4-yl)-3-pyridyl)carbonylamino]propyl}acetamide] | 5.58

These reach a higher pIC50. Values come first.

pIC50 | Compound
6.55 | CN(C)C(=NCc1cccc(CNC(=O)c2ccc(-c3ccccc3C#N)nc2NCCc2cccc(F)c2)n1)N(C)C [N-({6-[3,3-bis(dimethylamino)-2-azaprop-2-enyl](2-pyridyl)}methyl)(6-(2-cyanophenyl)-2-{[2-(3-fluorophenyl)ethyl]amino}(3-pyridyl))carboxamide]
6.61 | N#Cc1ccccc1-c1ccc(C(=O)NCC2CCCCCN2C(=O)CN)c(NCCc2cccc(F)c2)n1 (stereo not drawn) [N-{[1-(2-aminoacetyl)azaperhydroepin-2-yl]methyl}(6-(2-cyanophenyl)-2-{[2-(3-fluorophenyl)ethyl]amino}(3-pyridyl))carboxamide]
7.35 | N#Cc1ccccc1-c1ccc(C(=O)NC[C@H]2CCN2C(=O)CCN)c(NCCc2cccc(F)c2)n1 [N-{[(2R)-1-(3-aminopropanoyl)azetidin-2-yl]methyl}(6-(2-cyanophenyl)-2-{[2-(3-fluorophenyl)ethyl]amino}(3-pyridyl))carboxamide]
6.97 | O=C(NCc1cccnc1)c1ccc(-c2ccccc2)nc1NCCc1ccccc1F [(2-{[2-(2-fluorophenyl)ethyl]amino}-6-phenyl(3-pyridyl))-N-(3-pyridylmethyl)carboxamide]
6.60 | CC(=O)N[C@H](C)CNC(=O)c1cc(F)c(-c2cnn(C)c2)nc1NCCc1cccc(F)c1
7.28 | CC[C@@H](CO)CNC(=O)c1cc(F)c(-c2cn[nH]c2)nc1NCCc1cccc(F)c1 [N-((2R)-2-ethyl-3-hydroxypropyl)(5-fluoro-2-{[2-(3-fluorophenyl)ethyl]amino}-6-pyrazol-4-yl(3-pyridyl))carboxamide]
7.41 | CC[C@@H](CO)CNC(=O)c1cc(F)c(-c2cnn(C)c2)nc1NCCc1cccc(F)c1 [N-((2R)-2-ethyl-3-hydroxypropyl)(5-fluoro-2-{[2-(3-fluorophenyl)ethyl]amino}-6-(1-methylpyrazol-4-yl)(3-pyridyl))carboxamide]
6.48 | CC(=O)N1CCC(CNC(=O)c2ccc(-c3ccccc3C#N)nc2NCCc2cccc(F)c2)C1 (stereo not drawn) [N-[(1-acetylpyrrolidin-3-yl)methyl](6-(2-cyanophenyl)-2-{[2-(3-fluorophenyl)ethyl]amino}(3-pyridyl))carboxamide]
6.53 | CNc1ccc(CNC(=O)c2ccc(-c3ccccc3C#N)nc2NCCc2cccc(F)c2)cn1 [(6-(2-cyanophenyl)-2-{[2-(3-fluorophenyl)ethyl]amino}(3-pyridyl))-N-{[6-(methylamino)(3-pyridyl)]methyl}carboxamide]
7.12 | C[C@H](CNC(=O)c1cc(F)c(-c2cnn(C)c2)nc1NCCc1cccc(F)c1)NC(=O)CN
7.28 | O=Cc1ccc(-c2ccc(C(=O)NCc3cccnc3)c(NCCc3cccc(F)c3)n2)s1 [(2-{[2-(3-fluorophenyl)ethyl]amino}-6-(5-formyl(2-thienyl))(3-pyridyl))-N-(3-pyridylmethyl)carboxamide]
6.82 | N#Cc1ccccc1-c1ccc(C(=O)NCCc2cccnc2)c(NCCc2cccc(F)c2)n1 [(6-(2-cyanophenyl)-2-{[2-(3-fluorophenyl)ethyl]amino}(3-pyridyl))-N-(2-(3-pyridyl)ethyl)carboxamide]
7.19 | COC(=O)c1cccc(CNC(=O)c2ccc(-c3ccccc3C#N)nc2NCCc2cccc(F)c2)n1 [methyl 6-{[(6-(2-cyanophenyl)-2-{[2-(3-fluorophenyl)ethyl]amino}-3-pyridyl)carbonylamino]methyl}pyridine-2-carboxylate]

Reference: patent US7932270B2 (Cytokinetics, Inc., priority 2006, dated 2011)
